Values of other authors in patent US20030225048A1, “Sulfatase inhibiting continuous progestogen contraceptive regimens” (priority 2002, published 2003).

Conditions: humans; norelgestromin is the major metabolite

SMILES: C#C[C@]1(OC(C)=O)CC[C@H]2[C@@H]3CCC4=CC(=NO)CC[C@@H]4[C@H]3CC[C@@]21CC (mixture of isomers) [norgestimate]
- norgestimate converted to norelgestromin in vivo: ≥ 80%
